Measured values taken from ChEMBL document CHEMBL1159000, “Anti-AIDS agents, 4. Tripterifordin, a novel anti-HIV principle from Tripterygium wilfordii: isolation and structural elucidation” (J Nat Prod, 1992).
Values after ≈ are worked out from the molar mass of the structure shown.

Key:
[1] = test system: Human immunodeficiency virus 1; assay: Antiviral activity against HIV1 3B replication in human H9 cells after 1 hr by p24 antigen capture assay; assay type: functional, organism-based; settings: Human immunodeficiency virus 1, 3B, H9, 1 h
H9 = assay: Inhibition human H9 cell growth assessed as cell density at 15 uM after 3 days by cell count assay; assay type: cell-based; settings: h9, 72 h

For `C[C@@]1(O)C[C@@]23CC[C@H]4[C@@]5(CCC[C@]4(C)C(=O)OC5)[C@@H]2CC[C@H]1C3` [TRIPTERIFORDIN], the EC50 [1] was 1 µg/mL (≈ 3.14 µM) and the Activity (H9) was “Non-toxic”.
